In patent publication US11440939B2, “Anticancer peptides” (IDP DISCOVERY PHARMA, S.L., priority 2017, dated 2022):
Numbered stars: 1 amine (or outer) side, 2 acyl side, 3 side chain; on linkers, the order of the positions; unused ones are H or OH. Bridge positions count the residues as written; N and C are the ends. Square brackets hold non-standard residues; d marks the D form. Peptide text beside a SMILES is read from it. ξ: configuration not given here. ξαMeNle(6-ylidene) = CC(CCCC=[*:3])(N[*:1])C(=O)[*:2]; X1 = CC(CCCCCCC=[*:3])(N[*:1])C(=O)[*:2]; R8 = C=CCCCCCC[C@@](C)(N)C(=O)O; S5 = C=CCCC[C@](C)(N)C(=O)O

What was measured:
[1] = test system: NCI-H526; conditions: 72 h
Protocol: NCI-H526, epithelial (small cell lung cancer, SCLC), ATCC-CRL-5811;
During the amplification step and the assays, adherent cells were rinsed with DPBS (Dulbecco's Phosphate Buffered Saline, Sigma D1283) three times and afterward treated for 5 minutes with trypsin ([0.5 g/ml]/EDTA [0.2 g/ml]) (Gibco-BRL, 15400054) in solution of DPBS at 37° C., and, once detached, transferred in the culturing medium. No-adherent cells were centrifuged and transferred in the culturing medium. Cells were counted in a Neubauer chamber after labelling with Tripan-Blue. […]
MTT: 1. […] Absorbance at 570 nm was finally measured. […]

[2] = test system: NCI-H524; format: cell-based; conditions: 72 h
Protocol: NCI-H524, lung (small cell lung cancer, SCLC), ATCC-CRL-5831;
(§1) Cell line MCF-7 was cultured in incubator under CO2 (6%) at 37° C. in DMEM high glucose (Dulbecco's Modified Eagle Solution, Gibco-BRL 31966-21) medium with 10% fetal bovine serum inactivated (FBS) (Gibco-BRL 10106-169). Cell lines HL-60, NCI-H524, NCI-H526, NCI-H69, NCI-H82, NCI-H187 and H5B were cultured in an incubator at 37° C. in RPMI-1640 (Sigma R8758) medium with 10% of fetal bovine serum inactivated (FBS) and 2 mM glutamine (Sigma G7513). Cell line NCI-H510A was cultured in incubator in F12K medium with 10% of fetal bovine serum inactivated (FBS). Cell line GBM-18 and GBM-27 were cultured in incubator under CO2 (6%) at 37° C. in complete medium (Neurobasal+B27+Glutamax+Growth factors).
During the amplification step and the assays, adherent cells were rinsed with DPBS (Dulbecco's Phosphate Buffered Saline, Sigma D1283) three times and afterward treated for 5 minutes with trypsin ([…]) (Gibco-BRL, 15400054) in solution of DPBS at 37° C., and, once detached, transferred in the culturing medium. No-adherent cells were centrifuged and transferred in the culturing medium. Cells were counted in a Neubauer chamber after labelling with Tripan-Blue. […]
(§2) Cells were incubated during 72 h in incubator under CO2 atmosphere at 37° C. Cell viability was measured by means of MTT (3-(4,5-dimethylthiazol-2-yl)-2,5-diphenyltetrazolium bromide) assay, Alamar Blue® (Biosource DAL1100) and Hexosaminidase activity test, consecutively, following manufacturer instructions.
MTT: 1. […] Absorbance at 570 nm was finally measured.
Alamar Blue: 10 μl Alamar Blue solution was added to each well and the plates were incubated for […] in the incubator. Fluorescence ratio at 535/590 (excitation/emission) was measured in Cytofluor (Millipore) fluorimeter. Blank control was determined by lysis of untreated cells with con 2% of Triton X100, right before adding Alamar Blue solution. […]

[3] = test system: NCI-H187; format: cell-based; conditions: 72 h
Protocol: NCI-H187, epithelial (small cell lung cancer, SCLC), ATCC-CRL-5804;
as §1
(§3) During the amplification step and the assays, adherent cells were rinsed with DPBS (Dulbecco's Phosphate Buffered Saline, Sigma D1283) three times and afterward treated for 5 minutes with trypsin ([…]) (Gibco-BRL, 15400054) in solution of DPBS at 37° C., and, once detached, transferred in the culturing medium. No-adherent cells were centrifuged and transferred in the culturing medium. Cells were counted in a Neubauer chamber after labelling with Tripan-Blue.
(§4) MCF-7, NCI-H187, NCI-H69, NCI-H526 and H5B cells were seeded at a density of 5000 cells/well; NCI-H524 and NCI-H82 were seeded at a density of 2500 cells/well; HL-60 and NCI-H510A at 10000 cells/well in 100 μl of medium in 96 well plates. After 24 h, the compounds to be tested were added to calculate the dose/response curve at the starting concentration of 100 μM with serial dilutions (1:1). Controls were the untreated cells. Each experiment was performed in triplicate.
as §2
(§5) MTT: 1. Stock solution of MTT (475989 Calbiochem) was 5 mg/ml in PBS 1×. As negative control (experiment noise) 3 wells were treated with 20 μl/well of a solution of SDS 10% in H2O. The same control was used for Alamar Blue/Hexosaminidase. 10 μl/well of MTT solution were added and the plate was incubated for 3-4 hr. The medium was discarded and 100 μl of extracting buffer (PBS 1×, 15% SDS, 50% […] N,N-Dimethylformamide, pH 4,7) were added to each well. Plates were incubated for 16 h at room temperature under orbital shaking. Absorbance at 570 nm was finally measured.
(§6) Alamar Blue: 10 μl Alamar Blue solution was added to each well and the plates were incubated for […] in the incubator. Fluorescence ratio at 535/590 (excitation/emission) was measured in Cytofluor (Millipore) fluorimeter. Blank control was determined by lysis of untreated cells with con 2% of Triton X100, right before adding Alamar Blue solution.
(§7) Hexosaminidase activity test: after Alamar Blue lecture, medium was discarded and plates were rinsed once with PBS. 60 μl hexosaminidase substrate (p-nitrophenol-N-acetyl-beta-D-glucosamide 7.5 mM [Sigma N-9376], sodium citrate 0.1 M, pH 5.0, 0.25% Triton X-100) was added to each well and the plates were incubated at 37° C. for 2-5 h, according to the cell type (hexosaminidase activity changes according to the cell type). […] Blank control was the same as described before.
(§8) Data analysis was performed calculating the percentage of cell viability normalized vs. the values of negative control, which was considered equal to 100%. The dose/response curve was fitted through the sigmoidal equation dose-response (variable slope) and the EC50 values were calculated as follow: Y=Bottom+(Top−Bottom)/(1+10^{[(Log EC50−X)*HillSlope]},

[4] = test system: cancer cell lines; assay: Inhibition of cancer cell proliferation, general statements; format: cell-based
Protocol: as §4, §2, §8

[5] = test system: NCI-H510A; format: cell-based; conditions: 72 h
Protocol: (§9) NCI-510A, epithelial (small cell lung cancer, SCLC), ATCC-HBT-124; and Hepatocytes (normal liver), from a donor was provided by Foundation DTI-Donation & Transplantation Institute from surgical wastes and from organs not suitable for transplantation
as §1, §3, §4, §2, §5, §6, §7, §8

[6] = test system: NCI-H82; format: cell-based; conditions: 72 h
Protocol: NCI-H82, epithelial (small cell lung cancer, SCLC), ATCC-CRL-5811;
as §1, §3, §4, §2, §5, §6, §7, §8

[7] = test system: Human hepatocytes; assay: Hepatotoxicity assay, trypan blue exclusion, 24 h; format: cell-based; conditions: human hepatocytes, 0.5% SDS
Excerpt: as §9
Human liver from a donor was subjected to hepatocyte isolation by using a two-step tissue microperfusion technique taking maximum care to avoid anoxia before cannulation, since hepatocytes are cells highly sensitive to oxygen levels. An initial anoxic state could result in a low viability of the cells, and will later affect their metabolic capacity in the culture. Briefly, liver tissue was cannulated by using the accessible vessels with a 1 mm-diameter needle. A balanced salt solution was injected to clean the organ by using a peristaltic pump adjusted to a flow rate of 18-20 ml/min. After washing, a solution containing collagenase was added for liver disintegration. The cell suspension obtained using this process was filtered and centrifuged and, after a couple of washings to remove collagenase, cells were re-suspended in culture medium Ham's F-12/William (1:1) medium supplemented with 2 mM glutamine, […] sodium selenite, 2% newborn calf serum, 50 mU/ml penicillin, 50 μg/ml streptomycin, 0.1% bovine serum albumin, 1.68 mM NAME, 26 mM sodium bicarbonate, 25 μg/ml transferrin, 65.5 μM ethanolamine, 7.2 μM linoleic acid, 17.5 mM glucose, 6.14 mM ascorbic acid and 10 nM insulin.
After resuspension, a cell aliquot was removed and viability was determined by cell counting using the trypan blue exclusion method. Trypan blue uptake is the result of cell membrane alteration and in consequence of cell death. Thus, to quantify cell viability, 0.4% trypan blue in saline was added to the cells and these were immediately loaded in a Neubauer chamber. Viable cells were counted in 5 different fields under the optical microscope as non-blue cells. % Viability=Number of non-blue cells×100/Number of total cells Viability and Hepatoxicity Assay
Human hepatocytes isolated and re-suspended as described before were seeded at 100,000 viable cells/well on 96 collagen-coated plates in order to assess compound's cytotoxicity. After 1 hour in culture, medium was renewed to eliminate cell debris. Cultured human hepatocytes were allowed to stay in culture for 24 hours prior performing the experiments. After 24 h, the compounds to be tested were added to calculate the dose/response curve at the starting concentration of 400 μM with serial dilutions. Each experiment was performed in triplicate. Cells were incubated during 24 h in incubator under CO2 atmosphere at 37° C.
The viability was determined by cell counting using the trypan blue exclusion method. % Viability=Number of non-blue cells×100/Number of total cells Statistics

SMILES | EC50 [1] | EC50 [2] | EC50 [3] | inhibition of cancer cell proliferation (in words) [4] | EC50 [5] | EC50 [6] | % Viability [7]
CC(C)C[C@@H]1NC(=O)[C@H](CC(N)=O)NC(=O)[C@H](C(C)C)NC(=O)C(C)(NC(=O)[C@H](CCCCN)NC(=O)[C@@H](NC(=O)[C@H](CCCNC(=N)N)NC(=O)[C@H](CC(N)=O)NC(=O)[C@@H](N)CCCNC(=N)N)C(C)C)CCCC=CCCCC(C)(C(=O)N[C@@H](Cc2ccccc2)C(=O)N[C@@H](C)C(=O)N[C@H](C(=O)N[C@@H](CC(C)C)C(=O)N[C@@H](CCCNC(=N)N)C(=O)N[C@@H](CCC(=O)O)C(=O)N[C@@H](Cc2c[nH]cn2)C(N)=O)[C@@H](C)O)NC1=O (stereo partly shown) [H02] (H-RNRVK[ξαMeNle(6-ylidene)]VNL[ξαMeNle(6-ylidene)]FATLREH-NH2; staple 6-10; N-terminus and C-terminus assumed) | ~10 µM | ~15 µM | – | – | – | – | –
CC(C)C[C@H](NC(=O)[C@H](CCCCN)NC(=O)[C@@H](NC(=O)[C@H](CCCNC(=N)N)NC(=O)[C@H](CC(N)=O)NC(=O)[C@@H](N)CCCNC(=N)N)C(C)C)C(=O)N[C@H](C(=O)N[C@@H](CC(N)=O)C(=O)N[C@@H](CC(C)C)C(=O)N[C@]1(C)CCCCCCC=CCCC[C@@](C)(C(N)=O)NC(=O)[C@H](CCC(=O)O)NC(=O)[C@H](CCCNC(=N)N)NC(=O)[C@H](CC(C)C)NC(=O)[C@H]([C@@H](C)O)NC(=O)[C@H](C)NC(=O)[C@H](Cc2ccccc2)NC1=O)C(C)C [H04] (H-RNRVKLVNL[R8]FATLRE[S5]-NH2; staple 10-17; N-terminus and C-terminus assumed) | ~11 µM | ~9 µM | – | – | – | – | –
CC(C)C[C@H](NC(=O)[C@H](CCCCN)NC(=O)[C@@H](NC(=O)[C@@H](N)CCCNC(=N)N)C(C)C)C(=O)N[C@H](C(=O)N[C@@H](CC(N)=O)C(=O)N[C@@H](CC(C)C)C(=O)NC1(C)CCCCCCC=CCCCC(C)(C(=O)N[C@H](C(=O)N[C@@H](CCC(N)=O)C(N)=O)C(C)C)NC(=O)[C@H](CCC(=O)O)NC(=O)[C@H](CCCNC(=N)N)NC(=O)[C@H](CC(C)C)NC(=O)[C@H]([C@@H](C)O)NC(=O)[C@H](C)NC(=O)[C@H](Cc2ccccc2)NC1=O)C(C)C (stereo partly shown) [IDP-H14-Q15] (H-RVKLVNL[X1]FATLRE[ξαMeNle(6-ylidene)]VQ-NH2; staple 8-15; N-terminus and C-terminus assumed) | – | – | ~7.5 µM | active | ~7.5 µM | ~7.5 µM | –
CC(C)C[C@H](NC(=O)[C@H](CCCCN)NC(=O)[C@@H](NC(=O)[C@@H](N)CCCNC(=N)N)C(C)C)C(=O)N[C@H](C(=O)N[C@@H](CC(N)=O)C(=O)N[C@@H](CC(C)C)C(=O)NC1(C)CCCCCCC=CCCCC(C)(C(=O)N[C@H](C(=O)N[C@@H](CO)C(N)=O)C(C)C)NC(=O)[C@H](CCC(=O)O)NC(=O)[C@H](CCCNC(=N)N)NC(=O)[C@H](CC(C)C)NC(=O)[C@H]([C@@H](C)O)NC(=O)[C@H](C)NC(=O)[C@H](Cc2ccccc2)NC1=O)C(C)C (stereo partly shown) [IDP-H14-S15] (H-RVKLVNL[X1]FATLRE[ξαMeNle(6-ylidene)]VS-NH2; staple 8-15; N-terminus and C-terminus assumed) | – | – | ~7.5 µM | active | ~7.5 µM | ~7.5 µM | –
CCCCCCCCCCCCOS(=O)(=O)[O-].[Na+] [SDS, reference compound] | – | – | – | – | – | – | 13.6%
